Laboratory results as given in publication PMC10673058, “In Silico and In Vitro Search for Dual Inhibitors of the Trypanosoma brucei and Leishmania major Pteridine Reductase 1 and Dihydrofolate Reductase” (Molecules, 2023).
Like-named read-outs stand apart in the source and are kept apart here.

Assays:
[1] = biological target: T1, LmPTR1 (Leishmania major, UniProt Q01782); assay: Spectrophotometric enzyme inhibition assay, recombinant LmPTR1; assay type: biochemical
T1 construct: His6 (N); made in house; host or cells: E. coli BL21 (DE3), vector pET 15b::LmPTR1His (strain from the group of M. Paola Costi, Modena)
T1 sequence (Q01782 1-288): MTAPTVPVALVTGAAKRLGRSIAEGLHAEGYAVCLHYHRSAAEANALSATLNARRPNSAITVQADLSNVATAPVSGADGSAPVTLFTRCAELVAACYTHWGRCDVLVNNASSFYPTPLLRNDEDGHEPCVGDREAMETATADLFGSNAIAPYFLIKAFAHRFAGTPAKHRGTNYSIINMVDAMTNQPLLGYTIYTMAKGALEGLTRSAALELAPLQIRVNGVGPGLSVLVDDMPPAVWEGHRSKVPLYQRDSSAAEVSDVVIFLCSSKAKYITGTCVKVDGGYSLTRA
Experimental: (§1) Based on the in vitro assays against TbPTR1 and LmPTR1 performed in the previous works of our group, as well as the in silico results obtained from the current study, a total of 47 natural products were tested against the target enzymes. […] The concentration-effect curves for the IC50 and EC50 values that were obtained in the present study are depicted in Supplementary Materials Figures S21–S42.
(§2) The used TbPTR1 concentration was 3.23 mg/mL, with a specific activity of 0.03 U/mg. The measurements were carried out using the enzyme’s individual saturating concentrations for folic acid (8 μM) and NADPH (150 μM) in Buffer A (50 mM Tris/HCl (pH 7.6), 250 mM NaCl). For LmPTR1, the protein concentration was 5.02 mg/mL and the specific activity was calculated to be 0.29 U/mg. Buffer B (50 mM NaH2PO4 (pH 6.0), 100 mM NaCl) was used for all LmPTR1 measurements and the saturating concentrations amounted to 50 μM of folic acid and 200 μM of NADPH. The saturating conditions of the PTR1 enzymes were determined using the diagrams depicted in Figures S16 and S18 in the Supplementary Materials.
(§3) The inhibitory effect of the selected natural products was investigated by testing the DMSO solution of each compound at a constant concentration of 100 μM for TbPTR1 and 50 μM for LmPTR1, TbDHFR, and LmDHFR, as well as hDHFR. The concentrations of the cofactor and substrates were set at the previously determined saturating conditions (Section 4.2.5). Each test compound was incubated for 20 min with the respective enzyme and NADPH to ensure a sufficient interaction time before the reaction was induced by the addition of the substrate. The enzymatic activity was determined in duplicates and correlated with a reference that contained just DMSO, instead of an inhibitor. The enzymatic activity of the reference was normalized to 100%.
(§4) The half-maximal inhibitory concentration (IC50) of the natural products was determined in triplicate, using at least five different inhibitor concentrations against a reference containing no inhibitor. The enzymatic activity was documented and analyzed and the IC50 value was determined by nonlinear regression using GraphPad Prism 9 (GraphPad Software Inc., La Jolla, CA, USA).

[2] = biological target: T2, TbDHFR (Trypanosoma brucei brucei, UniProt Q27783); assay: Spectrophotometric enzyme inhibition assay, recombinant TbDHFR; assay type: biochemical
T2 construct: pET 11D::TbDHFRHis vector design for the recombinant overexpression of TbDHFR in E. coli; His; made in house; host or cells: E. coli BL21(DE3), vector pET 11D::TbDHFRHis
Experimental: Based on the in vitro assays against TbPTR1 and LmPTR1 performed in the previous works of our group, as well as the in silico results obtained from the current study, a total of 47 natural products were tested against the target enzymes.
The saturating conditions for TbDHFR and LmDHFR were determined using the diagrams depicted in Figures S17 and S19 in the Supplementary Materials.
as §3, §4

[3] = biological target: T3, TbPTR1 (Trypanosoma brucei brucei, UniProt O76290); assay: Dilution assay for reversible/irreversible inhibition of TbPTR1; assay type: biochemical; conditions: inhibitor concentration near IC50
T3 construct: His6 (N); made in house; host or cells: E. coli BL21 (DE3), vector pET 15b::TbPTR1His (strain from the group of M. Paola Costi, Modena)
T3 sequence (O76290 1-268): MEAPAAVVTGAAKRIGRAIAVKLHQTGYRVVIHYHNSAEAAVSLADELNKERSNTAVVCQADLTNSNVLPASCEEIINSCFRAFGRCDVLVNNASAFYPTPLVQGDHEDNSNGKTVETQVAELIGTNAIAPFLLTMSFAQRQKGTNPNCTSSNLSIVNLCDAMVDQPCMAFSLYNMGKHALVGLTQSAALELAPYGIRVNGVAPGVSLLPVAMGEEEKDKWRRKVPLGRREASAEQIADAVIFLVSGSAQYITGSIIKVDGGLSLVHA
Description: The catalytic center of TbPTR1 contains a cysteine residue (TbCys168) in close proximity to the substrate/inhibitor binding site. In our previous publication, we mentioned the possibility that Sesquiterpene Lactones 1 and 2 might interact as Michael acceptors with TbCys168 by covalent bond formation with its thiol group. Therefore, we have now subjected a selection of natural product inhibitors containing Michael acceptors (1, 2, 5, 17) to initial testing for irreversible inhibition, according to the dilution method described by Bisswanger (see Section 4.2.9).
In this method, the enzyme activity of the respective enzyme-inhibitor mixture is measured before and after a defined dilution (in this study, 1:2). In the absence of an inhibitor, dilution decreases the enzyme activity proportionally to the dilution factor. […] A reversible inhibitor, on the other hand, will dissociate upon dilution, resulting in a weaker decrease in activity than what corresponds to the dilution effect. In the presence of Inhibitors 1 and 2, the decrease in TbPTR1 activity upon the 1:2 dilution was almost proportional to the dilution factor, i.e., only 9.5% and 6.8% activity, respectively, were recovered compared to the reference. This would indeed support an irreversible mechanism of inhibition. […] However, further investigations on these compounds’ mechanisms of inhibition are under way.
To assign an either reversible or irreversible inhibition mechanism to selected compounds, the enzymatic activity of an enzyme-inhibitor mixture was determined before and after a defined dilution, using the reaction conditions described in Section 4.2.5 [16].
Two equivalent solutions with the respective enzyme and inhibitor combination were prepared, one of them being diluted with buffer in a 1:2 ratio shortly before the reaction was started by adding the substrate. The respective inhibitor concentration was set near the IC50 value. The substrate and cofactor concentrations were kept constant in both reaction mixtures. All measurements were carried out in duplicates against a reference containing DMSO instead of the inhibitor. […] If a reversible inhibitor was present, a higher degree of activity recovery (>>10%) could be observed than what corresponds to the dilution factor due to the partial dissociation of the inhibitor from the enzyme upon dilution. The percentual changes in the enzymatic activity of the undiluted and diluted test solution were compared and evaluated to decide the mechanism of inhibition.

[4] = biological target: T4, hDHFR (Homo sapiens, UniProt P00374); assay: Spectrophotometric enzyme inhibition assay, recombinant hDHFR (selectivity); assay type: biochemical; conditions: for inhibition at 50 µM: set compound concentration of 50 μM, read-out: relative inhibition of hDHFR
T4 construct: His; host or cells: E. coli BL21 (DE3), vector pET 15b::hDHFRHis
T4 sequence (P00374 1-187): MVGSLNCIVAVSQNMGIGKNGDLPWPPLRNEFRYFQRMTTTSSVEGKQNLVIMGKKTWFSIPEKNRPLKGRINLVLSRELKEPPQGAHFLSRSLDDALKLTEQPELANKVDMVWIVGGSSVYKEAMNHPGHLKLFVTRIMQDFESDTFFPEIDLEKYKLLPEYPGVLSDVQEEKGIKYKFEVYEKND
Experimental: For 15 compounds, there was enough substance available to be tested in selectivity studies against hDHFR.
The used hDHFR concentration was 0.64 mg/mL, with a specific activity of 0.62 U/mg. All measurements were carried out using the saturating concentrations for dihydrofolate (100 μM) and NADPH (50 μM) in Buffer C (50 mM Tris/HCl (pH 7.6), 250 mM NaCl, 10 mM BME). The saturating conditions for hDHFR were determined using the diagrams depicted in Figure S20 in the Supplementary Materials.
as §3, §4

[5] = biological target: T1, LmPTR1; parameters: method as in PMID 29211037; conditions: read-out: IC50 LmPTR1; from previous study; cited from earlier work
[6] = biological target: T3, TbPTR1; assay: Spectrophotometric enzyme inhibition assay, recombinant TbPTR1; assay type: biochemical; conditions: for EC50: read-out: EC50 TbPTR1 (footnote a)
Experimental: as §1, §2, §3, §4

[7] = biological target: T5, LmDHFR (Leishmania major, UniProt P07382); assay: Spectrophotometric enzyme inhibition assay, recombinant LmDHFR; assay type: biochemical
T5 construct: The DNA fragment encoding LmDHFR was amplified by Phusion DNA polymerase; His6 (N); made in house; host or cells: E. coli BL21(DE3), vector pET 11D::LmDHFRHis
T5 sequence (P07382 26-229 limits assumed): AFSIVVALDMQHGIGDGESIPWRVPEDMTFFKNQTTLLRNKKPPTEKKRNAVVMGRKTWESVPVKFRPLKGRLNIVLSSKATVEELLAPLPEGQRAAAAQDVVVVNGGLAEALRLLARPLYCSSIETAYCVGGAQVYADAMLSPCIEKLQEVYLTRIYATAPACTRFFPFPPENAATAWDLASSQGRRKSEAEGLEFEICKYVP
Experimental: as §1
The TbDHFR concentration was measured to be 0.04 mg/mL and a specific activity of 38.1 U/mg was calculated. The concentration of LmDHFR was 0.05 mg/mL with a specific activity of 56.2 U/mg. All measurements were carried out using the saturating concentrations for dihydrofolate (50 μM) and NADPH (150 μM) in Buffer C (50 mM Tris/HCl (pH 7.6), 250 mM NaCl, 10 mM BME). The saturating conditions for TbDHFR and LmDHFR were determined using the diagrams depicted in Figures S17 and S19 in the Supplementary Materials.
as §3, §4

T2 sequence (Q27783 28-238 limits assumed): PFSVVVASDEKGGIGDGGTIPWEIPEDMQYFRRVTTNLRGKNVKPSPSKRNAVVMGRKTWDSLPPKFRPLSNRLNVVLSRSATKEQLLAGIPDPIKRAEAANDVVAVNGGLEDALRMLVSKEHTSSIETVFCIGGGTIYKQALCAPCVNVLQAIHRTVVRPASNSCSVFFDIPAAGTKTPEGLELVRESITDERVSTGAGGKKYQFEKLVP

Structure (SMILES) | IC50 [4] [µM] | IC50 ([1]; read-out: IC50 LmPTR1) [µM] | IC50 ([2]; read-out: IC50 TbDHFR) [µM] | IC50 ([6]; read-out: IC50 TbPTR1) [µM] | further results
C=C(CO)C(=O)O[C@H]1CC(=C)[C@@H]2C[C@H](O)C(=C)[C@@H]2[C@H]2OC(=O)C(=C)[C@@H]21 [Compound 2, cynaropicrin] | > 50 | – | – | – | IC50 [1]: > 50 µM; inhibitory effect against LmPTR1 [1]: No relevant inhibitory effect; IC50 ([2]; recombinant enzyme, >50 = <50% inhibition at 50 μM, read-out: IC50 TbDHFR): 7.12 µM; TbPTR1 activity recovered upon 1:2 dilution compared to the reference [3]: 6.8%; inhibition of hDHFR [4]: no relevant inhibition
COc1cc([C@@H]2Oc3cc(-c4oc5cc(O)cc(O)c5c(=O)c4O)ccc3O[C@H]2CO)ccc1O [Compound 4, 2,3-dehydrosilybin B] | – | – | – | – | IC50 [5]: 42.9 µM; IC50 [6]: > 100 µM; EC50 ([4]; read-out: EC50 hDHFR (footnote a)): 3.8 µM; inhibition at 50 µM [4]: > 50%; IC50 [7]: 2.6 µM
OC[C@H]1O[C@@H](Oc2c(O)cc(O)cc2/C=C/c2ccc(O)cc2)[C@H](O)[C@@H](O)[C@@H]1O [Compound 10] | – | > 50 | > 50 | 83.6 | IC50 ([7]; read-out: IC50 LmDHFR): > 50 µM
CCC/C=C\C/C=C\CCCCCCCc1cccc(O)c1C(=O)O [Compound 11] | 2.4 | 10.2 | 0.2 | 20.1 | inhibition at 50 µM [4]: > 50%; IC50 ([7]; read-out: IC50 LmDHFR): 2.6 µM
C=CC/C=C\C/C=C\CCCCCCCc1cccc(O)c1C(=O)O [Compound 12] | – | – | – | 21.7 | –
COc1c(O)cc2c(=O)c3c(O)cc(O)c(CC=C(C)C)c3oc2c1CC=C(C)C [Compound 13] | – | – | 0.6 | 74.4 | –
CC(C)=CCc1c(O)cc2oc3cc(O)c(O)c(CC=C(C)C)c3c(=O)c2c1O [Compound 14, g-mangostin] | 2.7 | – | – | – | IC50 [1]: 10 µM; IC50 [2]: 0.2 µM; IC50 [6]: 71 µM; inhibition at 50 µM [4]: > 50%; IC50 [7]: 1.5 µM
CC(C)=CCC/C(C)=C/COc1ccc2oc3cc(O)cc(O)c3c(=O)c2c1 [Compound 15] | – | > 50 | 2.9 | – | EC50 [6]: 32.4 µM
CC(C)=CCc1c(O)ccc(C(=O)CCc2ccc(O)cc2)c1O [Compound 16] | – | > 50 | 11.7 | 64.6 | –
O=c1[nH]c(=O)n([C@@H]2O[C@H](CO)[C@@H](O)[C@H]2O)c2nc(-c3ccc(Cl)cc3)cnc12 [Compound 18] | – | – | > 50 | 58.6 | –
COc1ccc2c(c1)CCN=C2Cc1cc(OCc2ccccc2)c(OC)cc1C [Compound 19] | – | – | > 50 | 75.1 | –
CCC(C)C(=O)c1c(O)c(C/C=C(\C)CCC=C(C)C)c(O)c2c([C@H](CC)OC(C)=O)cc(=O)oc12 (some centres unmarked) [Compound 20, surangin B] | > 50 | – | 2.9 | 28.3 | EC50 ([1]; read-out: EC50 LmPTR1 (footnote a)): 35.1 µM; EC50 ([7]; read-out: EC50 LmDHFR (footnote a)): 4.7 µM
COc1c(CC=C(C)C)c(O)c([C@H](CC(C)C)c2c(O)c(CC=C(C)C)c(O)c(C(C)=O)c2O)c(O)c1C(C)=O [Compound 21, acrovestone] | 19.8 | > 50 | 2.1 | – | EC50 [6]: 36.8 µM; inhibition at 50 µM [4]: > 50%
COc1cc(C2OC(=O)C3C(c4ccc(O)c(OC)c4)OC(=O)C23)ccc1O (centres unmarked) [Compound 22] | > 50 | 30.2 | > 50 | – | EC50 [6]: 37.8 µM; IC50 ([7]; read-out: IC50 LmDHFR): > 50 µM
COc1cc(-c2oc3c(OC)c(O)cc(O)c3c(=O)c2OC)c(OC)c(OC)c1OC [Compound 23, 5,7-dihydroxy-3,3′,4′,5′,6′,8-hexamethoxyflavone] | – | – | – | – | TbPTR1 activity recovered upon 1:2 dilution compared to the reference [3]: about 33%
